Source: PubChem BioAssay (NCI)
“And” between values parts separate entries of the source, which are not always exact repeats. Equal values may be shown once.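 A five-concentration, 48-hour dose response in 96-well plates underlies each endpoint, interpolated linearly between surrounding concentrations. Here, GI50 denotes the concentration required for 50% inhibition of growth. TGI: concentration producing complete growth inhibition.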 Where a SMILES comes first, the peptide text is derived from it. [ ]: non-standard residue; d: D form. The star is where a group is joined. ξ: configuration not given here. dIva = CC[C@@](C)(N)C(=O)O; Aib = CC(C)(N)C(=O)O; ξP = O=C(O)C1CCCN1; βAla = NCCC(=O)O; X5 = OCN*

Experiments:
Experiment in all cases: inhibition of tumour cell growth, NCI panel, 48 h
[1] = tested on: MDA-MB-468 breast
[2] = tested on: 786-0 renal
[3] = tested on: A498 renal
[4] = tested on: A549 NSCLC
[5] = tested on: ACHN renal
[6] = tested on: BT-549 breast
[7] = tested on: CAKI-1 renal
[8] = tested on: CCRF-CEM leukemia
[9] = tested on: COLO 205 colon
[10] = tested on: DU-145 prostate
[11] = tested on: EKVX NSCLC
[12] = tested on: HCC-2998 colon
[13] = tested on: HCT-116 colon
[14] = tested on: HCT-15 colon
[15] = tested on: HL-60(TB) leukemia
[16] = tested on: HOP-62 NSCLC
[17] = tested on: HOP-92 NSCLC
[18] = tested on: HS 578T breast
[19] = tested on: HT29 colon
[20] = tested on: IGROV1 ovarian
[21] = tested on: K-562 leukemia
[22] = tested on: KM12 colon
[23] = tested on: LOX IMVI melanoma
[24] = tested on: M14 melanoma
[25] = tested on: MALME-3M melanoma
[26] = tested on: MCF7 breast
[27] = tested on: MDA-MB-435
[28] = tested on: MOLT-4 leukemia
[29] = tested on: NCI-H226 lung
[30] = tested on: NCI-H23 lung
[31] = tested on: NCI-H460 lung
[32] = tested on: NCI-H522 lung
[33] = tested on: NCI/ADR-RES ovarian
[34] = tested on: OVCAR-3 ovarian
[35] = tested on: OVCAR-4 ovarian
[36] = tested on: OVCAR-5 ovarian
[37] = tested on: OVCAR-8 ovarian
[38] = tested on: PC-3 prostate
[39] = tested on: RPMI-8226 leukemia
[40] = tested on: RXF 393 renal
[41] = tested on: SF-268 CNS
[42] = tested on: SF-295 CNS
[43] = tested on: SF-539 CNS
[44] = tested on: SK-MEL-28 melanoma
[45] = tested on: SK-MEL-5 melanoma
[46] = tested on: SK-OV-3 ovarian
[47] = tested on: SN12C renal
[48] = tested on: SNB-19 CNS
[49] = tested on: SR leukemia
[50] = tested on: SW-620 colon
[51] = tested on: T-47D breast
[52] = tested on: TK-10 renal
[53] = tested on: U251 CNS
[54] = tested on: UACC-257 melanoma
[55] = tested on: UACC-62 melanoma

CC(=O)Nc1nc(C)c(-c2cc3c(c(S(C)(=O)=O)c2)C(=O)N([C@@H](C)C2CC2)C3)s1
GI50 [1]: 31.6 µM
TGI [1]: > 100 µM

COc1ccc(/C=C/C(=O)/C=C(/C=C/c2ccc(OC)c(OC)c2OC)OB(F)F)c(OC)c1OC
GI50 [1]: 2.57 µM
TGI [1]: 9.65 µM

NC(N)=NC(N)=NCc1ccco1
GI50 [1]: 158 µM and 36.8 µM
TGI [1]: 500 µM

COc1ccc2c(c1)NC(=O)CN2c1nc(C)nc2ccccc12
GI50 [1]: 0.000415 µM

NC(N)=N/N=C/c1ccc(Br)cc1
GI50 [1]: 1.5 µM
TGI [1]: 4.81 µM

COC(=O)[C@]1(C)CC[C@]2(C)CC[C@]3(C)C(=CC(=O)[C@@H]4[C@@]5(C)CCC(=O)NC(C)(C)[C@@H]5CC[C@]43C)[C@@H]2C1
GI50 [1]: 18.3 µM
TGI [1]: 64.2 µM

COc1ccc(-c2c(C#N)cnc(N)c2-c2nc3cc(C)c(C)cc3[nH]2)cc1
GI50 [1]: 6.22 µM
TGI [1]: 23.1 µM

CC(=O)N1c2ccc(-c3ccc(C(=O)O)cc3)cc2[C@H](Nc2ccc(Cl)cc2)C[C@@H]1C
GI50 [1]: 0.131 µM
TGI [1]: 17.3 µM

COC(=O)CCc1c(/C=C2\N=C(c3ccc[nH]3)C=C2OC)[nH]c(C)c1C(=O)OCc1ccccc1
GI50 [1]: 0.842 µM
TGI [1]: 4.4 µM

NS(=O)(=O)c1ccc(N=Nc2c(=O)[nH]c3ccc4[nH]cccc4c23)cc1
GI50 [1]: 0.0733 µM
TGI [1]: 0.257 µM

O=C(Nc1nc2ccc([N+](=O)[O-])cc2s1)Nc1ccccc1F
GI50 [2]: 17.7 µM
TGI [2]: > 100 µM
GI50 [3]: 4.88 µM
TGI [3]: 36.7 µM
GI50 [4]: 7.4 µM
TGI [4]: 28.5 µM
GI50 [5]: 8.13 µM
TGI [5]: 95.7 µM
GI50 [6]: 11.9 µM
TGI [6]: 46.5 µM
GI50 [7]: 5.32 µM
TGI [7]: 73.2 µM
GI50 [8]: 5.42 µM
TGI [8]: 47.9 µM
GI50 [9]: 15.1 µM
TGI [9]: 30.4 µM
GI50 [10]: 7.11 µM
TGI [10]: > 100 µM
GI50 [11]: 4.37 µM
TGI [11]: 55.5 µM
GI50 [12]: 7.58 µM
TGI [12]: 34.1 µM
GI50 [13]: 9.97 µM
TGI [13]: 39.8 µM
GI50 [14]: 4.93 µM
TGI [14]: 33.9 µM
GI50 [15]: 4.31 µM
TGI [15]: 22 µM
GI50 [16]: 17.2 µM
TGI [16]: 56.3 µM
GI50 [17]: 2.83 µM
TGI [17]: 8.28 µM
GI50 [18]: 5.89 µM
TGI [18]: 59 µM
GI50 [19]: 23.6 µM
TGI [19]: > 100 µM
GI50 [20]: 4.57 µM
TGI [20]: > 100 µM
GI50 [21]: 4.99 µM
TGI [21]: 25 µM
GI50 [22]: 5.33 µM
TGI [22]: 52.8 µM
GI50 [23]: 10.7 µM
TGI [23]: 58.8 µM
GI50 [24]: 19.1 µM
TGI [24]: > 100 µM
GI50 [25]: 4.17 µM
TGI [25]: 30.9 µM
GI50 [26]: 5.68 µM
TGI [26]: 35.3 µM
GI50 [27]: 5.46 µM
TGI [27]: > 100 µM
GI50 [1]: 3.2 µM
TGI [1]: 19.2 µM
GI50 [28]: 3.77 µM
TGI [28]: 15.5 µM
GI50 [29]: 13.4 µM
TGI [29]: > 100 µM
GI50 [30]: 3.6 µM
TGI [30]: 21.6 µM
GI50 [31]: 4.66 µM
TGI [31]: 26.5 µM
GI50 [32]: 3.49 µM
TGI [32]: 22.6 µM
GI50 [33]: 7.98 µM
TGI [33]: 32.4 µM
GI50 [34]: 3.99 µM
TGI [34]: 46.6 µM
GI50 [35]: 5.21 µM
TGI [35]: > 100 µM
GI50 [36]: 22 µM
TGI [36]: 80.8 µM
GI50 [37]: 15.8 µM
TGI [37]: 50.4 µM
GI50 [38]: 6.83 µM
TGI [38]: 51 µM
GI50 [39]: 3.45 µM
TGI [39]: 16.5 µM
GI50 [40]: 13.3 µM
TGI [40]: 47.3 µM
GI50 [41]: 8.41 µM
TGI [41]: > 100 µM
GI50 [42]: 11.4 µM
TGI [42]: 32.1 µM
GI50 [43]: 8.33 µM
TGI [43]: 26.9 µM
GI50 [44]: 5.79 µM
TGI [44]: 83.8 µM
GI50 [45]: 2.64 µM
TGI [45]: 7.35 µM
GI50 [46]: 5.9 µM
TGI [46]: 46.1 µM
GI50 [47]: 4.65 µM
TGI [47]: 62.3 µM
GI50 [48]: 6.35 µM
TGI [48]: > 100 µM
GI50 [49]: 3.31 µM
TGI [49]: 17.4 µM
GI50 [50]: 12.2 µM
TGI [50]: > 100 µM
GI50 [51]: 3.06 µM
TGI [51]: 22.7 µM
GI50 [52]: 8.78 µM
TGI [52]: 83 µM
GI50 [53]: 7.41 µM
TGI [53]: 35.7 µM
GI50 [54]: 6.08 µM
TGI [54]: 36.9 µM
GI50 [55]: 3.77 µM
TGI [55]: > 100 µM

COc1ccc(-c2cc3c(N)ncnc3o2)cc1
GI50 [1]: > 25 µM
TGI [1]: > 25 µM

CCCCCCCCCCCCCCCC(N)c1ccccc1 (stereo unspecified)
GI50 [1]: 1.58 µM
TGI [1]: 3.14 µM

C[C@H](c1ccc(Cl)cc1[N+](=O)[O-])N1C(=O)c2cc(I)ccc2NC(=O)[C@H]1c1ccc(Cl)cc1
GI50 [1]: 16.6 µM
TGI [1]: > 100 µM

COc1cc[nH]c1/C=C1\C(=O)Nc2ccc([N+](=O)[O-])c(N3CC[C@@H](O)C3)c21
GI50 [1]: 0.352 µM
TGI [1]: 0.995 µM

COc1ccccc1/C=C/C=N/NC1=NC2C(S1)N(C)C(=O)N2c1ccccc1 (stereo unspecified)
GI50 [1]: 0.428 µM
TGI [1]: 31 µM

CCC(=O)OCN1C(=O)C=CC1=O
GI50 [1]: 14.1 µM
TGI [1]: 32.4 µM

Nc1nc(N)c(-c2ccc(Cl)cc2)c(/C=C/c2ccc([N+](=O)[O-])cc2)n1
GI50 [1]: 3.02 µM
TGI [1]: > 100 µM

CN(C)CCNC(=O)c1ccc(-c2nc3ccc4[nH]ncc4c3c3c2COCC3)cc1
GI50 [1]: 0.169 µM
TGI [1]: 0.36 µM

C=CC(=O)Nc1cccc(Nc2nc(Nc3ccc(N4CCN(C(C)=O)CC4)cc3OC)ncc2C(F)(F)F)c1
GI50 [1]: 0.288 µM and 0.266 µM
TGI [1]: 1.98 µM and 1.62 µM

O=C1C=C(OCC=C(Cl)Cl)C(=O)c2ccccc21
GI50 [1]: 1.05 µM
TGI [1]: 3.6 µM

CC(CNc1nc(Nc2ccc(Cl)c(Cl)c2)nc(C(Cl)(Cl)Cl)n1)N(C)C (stereo unspecified)
GI50 [1]: 1.47 µM
TGI [1]: 2.85 µM

CCC(=O)Oc1ccc(/C=N/NC(N)=S)nc1
GI50 [1]: 1.97 µM
TGI [1]: 7.22 µM

O=S1(=O)C=C(c2ccccc2)C(c2ccccc2)=C1
GI50 [1]: 1.14 µM
TGI [1]: 2.46 µM

CN1C(=O)C(C)(C)Oc2c(-c3cn(C)c(=O)c4[nH]ccc34)cc(S(C)(=O)=O)cc21
GI50 [1]: 0.551 µM
TGI [1]: 3.7 µM

CNCC1CCn2c(c(C3=C(c4cn(C)c5ccccc45)C(=O)NC3=O)c3ccccc32)C1 (stereo unspecified)
GI50 [1]: 2.62 µM
TGI [1]: 6.58 µM

CC[C@@](C)(NC(=O)[C@H](C)NC(=O)CCNC(=O)C(C)(C)NC(=O)[C@H](C)NC(=O)[C@@H]1CCCN1C(=O)[C@@](C)(CC)NC(=O)[C@H](Cc1ccccc1)NC(=O)C1CCCN1C(=O)C(C)(C)NC(=O)C1CCCN1C(=O)C(C)(C)NC(C)=O)C(=O)NCCC(=O)N[C@@H](CC(C)C)C(=O)NC(C)(C)C(=O)NCCC(=O)N[C@@H](CC(C)C)C(=O)NC(C)(C)C(=O)NC(C)(C)C(=O)N[C@@H](CC(C)C)C(=O)NCCC(=O)NCO (stereo partly specified) (Ac-[Aib][ξP][Aib][ξP]F[dIva]PA[Aib][βAla]A[dIva][βAla]L[Aib][βAla]L[Aib][Aib]L[βAla]-X5)
GI50 [1]: 0.0528 µM
TGI [1]: 0.163 µM

COc1cc(OC)c2c(c1Cl)O[C@]1(C2=O)C(OCc2ccccc2)=CC(=O)C[C@H]1C
GI50 [1]: 0.741 µM
TGI [1]: 47.5 µM

CN1CCN(Cc2ccc(NC(=O)c3[nH]ncc3Nc3cc(OC4CCCC4)ncn3)cc2)CC1
GI50 [1]: 1.98 µM
TGI [1]: 4.77 µM

O=C1/C(=C/c2cccc(F)c2)CN(C(=O)C(Cl)Cl)C/C1=C\c1cccc(F)c1
GI50 [1]: 0.207 µM
TGI [1]: 0.529 µM

CC1(C)N=C(N)N=C(N)N1c1ccc(CCC(=O)Nc2cccc(S(=O)(=O)F)c2)cc1
GI50 [1]: 1.31 µM
TGI [1]: > 100 µM

CN1CCN(Cc2ccc(NC(=O)c3cncc(C#Cc4ncc5ccccn45)c3)cc2C(F)(F)F)CC1
GI50 [1]: 2.78 µM
TGI [1]: 7.9 µM
